These results are taken from paper PMC4006998 (Nature chemical biology, 2009).

The target in one data set is CTX-M β-lactamase (Escherichia coli, UniProt Q9L5C8). In kind it is biochemical. Particulars: Ki AmpC versus Ki CTX-M.
Data set [1] has as its target T1, AmpC β-lactamase (Escherichia coli, UniProt P00811). Particulars: at relevant concentrations; no reference given; cited from earlier work.
The target in data set [2] is T1, AmpC β-lactamase. In kind it is biochemical. Conditions: read-out: Km of nitrocefin for AmpC; substrate; 100 mM Tris-HCl pH 7.0.
The subject of data set [3] is O=C(Cc1cccs1)N[C@@H]1C(=O)N2C(C(=O)O)=C(/C=C/c3ccc([N+](=O)[O-])cc3[N+](=O)[O-])CS[C@H]12. Put plainly: purified protein, by the assay type. Conditions: other: substrate, 100 mM Tris-HCl pH 7.0, 19.0 °C.

T1 sequence (P00811 20-377): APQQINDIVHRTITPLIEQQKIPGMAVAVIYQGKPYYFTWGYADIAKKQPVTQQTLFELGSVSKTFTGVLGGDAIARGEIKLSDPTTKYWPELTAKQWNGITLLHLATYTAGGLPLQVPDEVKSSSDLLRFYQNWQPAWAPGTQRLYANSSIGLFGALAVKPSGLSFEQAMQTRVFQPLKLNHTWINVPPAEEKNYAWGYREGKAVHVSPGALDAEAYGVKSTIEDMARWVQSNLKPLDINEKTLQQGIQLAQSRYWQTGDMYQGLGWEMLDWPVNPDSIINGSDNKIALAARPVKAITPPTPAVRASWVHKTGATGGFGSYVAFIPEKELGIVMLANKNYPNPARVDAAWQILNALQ

`O=C(Nc1cccc(-c2nnn[nH]2)c1)c1cccc(F)c1` [Compound 12]: the “specificity (CTX-M over AmpC)” value on CTX-M β-lactamase is given as “over 100 fold”.
For the compound `O=C(O)[C@H]1/C(=C/CO)O[C@@H]2CC(=O)N21` [clavulanate], the “inhibition of AmpC” value on AmpC β-lactamase [1] was “does not inhibit AmpC at relevant concentrations”.
For `O=C(Cc1cccs1)N[C@@H]1C(=O)N2C(C(=O)O)=C(/C=C/c3ccc([N+](=O)[O-])cc3[N+](=O)[O-])CS[C@H]12` [nitrocefin], the Km on AmpC β-lactamase [2] amounted to 400 µM.
For CTX-M β-lactamase (Escherichia coli), the Km in data set [3] stood at 11.6 µM.

As a reminder, the Km is the substrate concentration at which the rate is half of its maximum.
